Laboratory results taken from publication doi:10.1101/2020.09.01.277368v1, “Disulfiram inhibits M. tuberculosis growth by altering methionine pool, redox status and host-immune response” (biorxiv, 2020).

Target: T1, MetA (HSAT, homoserine acetyl transferase, Rv3341) (Mycobacterium tuberculosis, UniProt P9WJY9)
T1 construct: gene metXA
Assay: endpoint DTNB CoA release assay
Format: biochemical

T1 sequence (P9WJY9 whole entry, looked up): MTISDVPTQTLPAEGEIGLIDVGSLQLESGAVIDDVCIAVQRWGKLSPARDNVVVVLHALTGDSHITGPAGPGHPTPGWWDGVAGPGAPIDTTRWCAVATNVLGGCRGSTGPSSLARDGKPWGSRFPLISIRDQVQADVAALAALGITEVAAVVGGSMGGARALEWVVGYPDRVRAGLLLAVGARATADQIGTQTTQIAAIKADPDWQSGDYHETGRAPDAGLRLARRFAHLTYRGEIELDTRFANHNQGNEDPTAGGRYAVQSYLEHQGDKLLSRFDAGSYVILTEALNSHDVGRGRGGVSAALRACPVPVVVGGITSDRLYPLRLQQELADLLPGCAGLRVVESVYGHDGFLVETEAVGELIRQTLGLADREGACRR

| Compound | % inhibition at 100 μM [%] |
| --- | --- |
| Cc1ccc(S(=O)(=O)SC/C=C/CSS(=O)(=O)c2ccc(C)cc2)cc1 [NSC624158] | > 50 |
| O=Nc1c(-c2cccc([N+](=O)[O-])c2)nc2ncccn12 [NSC369066] | > 50 |
| Oc1cc(-n2cccn2)c(O)cc1-n1cccn1 [NSC645987] | > 50 |
| C/C(=N\NC(=S)N(C)C)c1ccccn1.[Cu][Br] [NSC635448] | > 50 |
| CCOC(=O)/C(C#N)=C1\SS/C(=C(/C#N)C(=O)OCC)S1 [NSC98363] | > 50 |
| COc1cc(-c2ccc(Nc3ccccc3C(=O)O)c(OC)c2)ccc1Nc1ccccc1C(=O)O [NSC73735] | > 50 |
| Oc1cc(CNC2CCCCC2)c(O)cc1CNC1CCCCC1 [NSC48443] | > 50 |
